# According to patent publication US10144742B2 (Millennium Pharmaceuticals, Inc., priority 2014, dated 2018):
# Read-outs that look alike come from different tables or passages of the source.
# Tests used:
# hNAMPT protein = hNAMPT protein (Homo sapiens (Human), UniProt P43490); test: NAMPT enzyme assay (TR-FRET/HTRF, BodiPY ligand, anti 6His-Tb); assay type: binding; conditions: for IC50: NAMPT IC50 range class, read-out: IC50; for inhibition at 1 µM: read-out: Percent Inhibition
# Outline: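 TR-FRET binding assay in which His-tagged human NAMPT with anti-6His-Tb is displaced by compound from a BodiPY ligand, incubated 1 h at rt in the dark. Excitation was at 320 nm, with the 520/486 nm emission ratio read. IC50 was fitted from inhibition relative to DMSO controls.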
# PC3 cells = test: PC3 growth inhibition (Cell-titer glo, 72 hours); assay type: cell-based; conditions: Homo sapiens, PC-3, PC3 cells, 72 hours, Cell-titer glo, read-out: Percent Inhibition (PC3 growth inhibition); for inhibition at 1 µM: compound concentration 1 μM; for inhibition at 1.667 µM: compound concentration 1.667 μM
# Outline: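 PC3 cells in RPMI1640 seeded overnight at 37 °C, 5% CO2, then exposed to compound diluted in AIM serum-free medium for 72 h. Viability by CellTiter-Glo luminescence vs DMSO controls; single-concentration % remaining viability (1 μM or 1.667 μM), or GI50/LD50 from curves.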
# hNAMPT protein, sequence (P43490 whole entry): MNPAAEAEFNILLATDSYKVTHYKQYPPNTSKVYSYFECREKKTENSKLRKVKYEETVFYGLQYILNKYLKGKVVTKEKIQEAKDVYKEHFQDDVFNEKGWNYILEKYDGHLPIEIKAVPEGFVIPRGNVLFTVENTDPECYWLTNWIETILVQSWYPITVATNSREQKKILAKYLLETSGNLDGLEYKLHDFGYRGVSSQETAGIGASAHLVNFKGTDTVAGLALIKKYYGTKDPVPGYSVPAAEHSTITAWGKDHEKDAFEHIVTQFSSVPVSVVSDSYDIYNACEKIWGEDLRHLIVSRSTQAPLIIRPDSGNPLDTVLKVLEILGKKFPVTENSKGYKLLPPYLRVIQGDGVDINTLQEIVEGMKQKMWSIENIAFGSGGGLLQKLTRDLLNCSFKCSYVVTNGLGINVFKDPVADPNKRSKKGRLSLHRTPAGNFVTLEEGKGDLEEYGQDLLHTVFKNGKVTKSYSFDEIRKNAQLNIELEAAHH
Compound,IC50 (hNAMPT protein),inhibition at 1 µM (hNAMPT protein; compound concentration 1 μM),inhibition at 1 µM (PC3 cells),inhibition at 1.667 µM (PC3 cells),inhibition at 1 µM (hNAMPT protein)
"CS(=O)(=O)C1CCN(c2nc3ccc(C(=O)NCCCn4ccnc4)cc3nc2-c2ccccc2)C1 (stereo not drawn) [Compound I-150, N-[3-(1H-imidazo-1-yl)propyl]-2-[3-(methylsulfonyl)pyrrolidin-1-yl]-3-phenylquinoxaline-6-carboxamide]",100 to 500 nM,75%,-7%,–,–
"Cn1ccnc1CCNC(=O)c1ccc2nc(-c3ccc(F)cc3)c(-c3ccc(F)cc3)nc2c1 [Compound I-151, 2,3-Bis(4-fluorophenyl)-N-[2-(1-methyl-1H-imidazol-2-yl)ethyl]quinoxaline-6-carboxamide]",100 to 500 nM,79%,96%,–,–
"CC(C)(C)OC(=O)NCc1cccc(-c2nc3ccc(C(=O)NCCCn4ccnc4)cc3nc2-c2ccccc2)c1 [Compound I-152, tert-butyl[3-(6-{[3-(1H-imidazol-1-yl)propyl]carbamoyl}-3-phenylquinoxalin-2-yl)benzyl]carbamate]",500 to 1000 nM,62%,3%,–,–
"O=C(NCCCn1ccnc1)c1ccc2nc(-c3ccccc3)c(N3CCC(O)C3)nc2c1 (stereo not drawn) [Compound I-153, 3-(3-hydroxypyrrolidin-1-yl)-N-[3-(1H-imidazol-1-yl)propyl]-2-phenylquinoxaline-6-carboxamide]",2000 to 10000 nM,22%,14%,–,–
"O=C(NCCCc1ncc[nH]1)c1ccc2nc(N3CC4(COC4)C3)c(-c3ccc(F)cc3)nc2c1 [Compound I-154, 3-(4-fluorophenyl)-N-[3-(1H-imidazol-2-yl)propyl]-2-(2-oxa-6-azaspiro[3.3]hept-6-yl)quinoxaline-6-carboxamide]",< 100 nM,98%,–,2%,–
"O=C(c1ccc2nc(-c3ccc(F)cc3)c(-c3ccc(F)cc3)nc2c1)N1CCOC(c2cccnc2)C1 (stereo not drawn) [Compound I-155, [2,3-bis(4-fluorophenyl)quinoxalin-6-yl][2-(pyridin-3-yl)morpholin-4-yl]methanone]",2000 to 10000 nM,12%,103%,–,–
"O=C(NCc1ccc2nccn2c1)c1ccc2nc(N3CCC(O)CC3)c(-c3ccc(F)cc3)nc2c1 [Compound I-156, 3-(4-Fluorophenyl)-2-(4-hydroxypiperidin-1-yl)-N-(imidazo[1,2-a]pyridin-6-ylmethyl)quinoxaline-6-carboxamide]",< 100 nM,97%,–,2%,–
"N#Cc1cccc(-c2nc3cc(C(=O)NCCCn4ccnc4)ccc3nc2-c2ccccc2)c1 [Compound I-157, 3-(3-cyanophenyl)-N-[3-(1H-imidazol-1-yl)propyl]-2-phenylquinoxaline-6-carboxamide]",1000 to 2000 nM,40%,2%,–,–
"Cc1nc2ccc(C(=O)NCCCn3ccnc3)cc2nc1-c1ccccc1 [Compound I-158, N-[3-(1H-imidazol-1-yl)propyl]-2-methyl-3-phenylquinoxaline-6-carboxamide]",1000 to 2000 nM,42%,0%,–,–
"O=C(NCCCn1ccnc1)c1ccc2nc(N3CC4CC4C3)c(-c3ccccc3)nc2c1 (stereo not drawn) [Compound I-159, 2-(3-azabicyclo[3.1.0]hex-3-yl)-N-[3-(1H-imidazol-1-yl)propyl]-3-phenylquinoxaline-6-carboxamide]",100 to 500 nM,71%,-6%,–,–
"O=C(NCCCn1ccnc1)c1ccc2nc(N3CCCCC3)c(-c3ccccc3)nc2c1 [Compound I-161, N-[3-(1H-imidazol-1-yl)propyl]-3-phenyl-2-(piperidin-1-yl)quinoxaline-6-carboxamide]",< 100 nM,89%,-7%,–,–
"O=C(NCCCn1ccnc1)c1ccc2nc(-c3ccccc3)c(C3=CCOCC3)nc2c1 [Compound I-162, 3-(3,6-dihydro-2H-pyran-4-yl)-N-[3-(1H-imidazol-1-yl)propyl]-2-phenylquinoxaline-6-carboxamide]",1000 to 2000 nM,44%,1%,–,–
"O=C(c1ccc2nc(-c3ccc(F)cc3)c(-c3ccc(F)cc3)nc2c1)N1CCC(c2ccccn2)C1 (stereo not drawn) [Compound I-163, [2,3-bis(4-fluorophenyl)quinoxalin-6-yl][3-(pyridin-2-yl)pyrrolidin-1-yl]methanone]",2000 to 10000 nM,17%,86%,–,–
"O=C(NCCc1nccs1)c1ccc2nc(-c3ccc(F)cc3)c(-c3ccc(F)cc3)nc2c1 [Compound I-164, 2,3-Bis(4-fluorophenyl)-N-[2-(1,3-thiazol-2-yl)ethyl]quinoxaline-6-carboxamide]",100 to 500 nM,–,101%,–,83%
"CN1CC=C(c2nc3ccc(C(=O)NCCCn4ccnc4)cc3nc2-c2ccccc2)CC1 [Compound I-165, N-[3-(1H-imidazol-1-yl)propyl]-2-(1-methyl-1,2,3,6-tetrahydropyridin-4-yl)-3-phenylquinoxaline-6-carboxamide]",100 to 500 nM,78%,-7%,–,–
"O=C(NCCCn1ccnc1)c1ccc2nc(-c3ccccc3)c(N3CCCCC3)nc2c1 [Compound I-166, N-[3-(1H-imidazol-1-yl)propyl]-2-phenyl-3-(piperidin-1-yl)quinoxaline-6-carboxamide]",2000 to 10000 nM,31%,5%,–,–
"Cn1cc(-c2nc3cc(C(=O)NCCCn4ccnc4)ccc3nc2-c2ccccc2)cn1 [Compound I-167, N-[3-(1H-imidazol-1-yl)propyl]-3-(1-methyl-1H-pyrazol-4-yl)-2-phenylquinoxaline-6-carboxamide]",2000 to 10000 nM,24%,1%,–,–
"CC(=O)N1CCN(c2nc3cc(C(=O)NCCCn4ccnc4)ccc3nc2-c2ccccc2)CC1 [Compound I-168, 3-(4-Acetylpiperazin-1-yl)-N-[3-(1H-imidazol-1-yl)propyl]-2-phenylquinoxaline-6-carboxamide]",100 to 500 nM,84%,1%,–,–
"O=C(NCCc1ccccn1)c1ccc2nc(-c3ccc(F)cc3)c(-c3ccc(F)cc3)nc2c1 [Compound I-169, 2,3-bis(4-fluorophenyl)-N-[2-(pyridin-2-yl)ethyl]quinoxaline-6-carboxamide]",1000 to 2000 nM,36%,93%,–,–
O=C(NCc1ccc2nccn2c1)c1ccc2nc(N3CCCCC3)c(-c3ccc(F)cc3)nc2c1 [Compound I-170],< 100 nM,98%,–,2%,–
"CCOC(=O)CCc1ccc(-c2nc3cc(C(=O)NCCCn4ccnc4)ccc3nc2-c2ccccc2)cc1 [Compound I-171, ethyl 3-[4-(7-{[3-(1H-imidazol-1-yl)propyl]carbamoyl}-3-phenylquinoxalin-2-yl)phenyl]propanoate]",2000 to 10000 nM,27%,95%,–,–
"COC1CN(c2nc3ccc(C(=O)NCCCc4ncc[nH]4)cc3nc2-c2ccc(F)cc2)C1 [Compound I-172, 3-(4-fluorophenyl)-N-[3-(1H-imidazol-2-yl)propyl]-2-(3-methoxyazetidin-1-yl)quinoxaline-6-carboxamide]",< 100 nM,> 99%,–,2%,–
"O=C(NCCn1ccnc1)c1ccc2nc(N3CCC(C4CCNCC4)CC3)c(-c3ccccc3)nc2c1 [Compound I-173, 2-(4,4′-bipiperidin-1-yl)-N-[2-(1H-imidazol-1-yl)ethyl]-3-phenylquinoxaline-6-carboxamide]",100 to 500 nM,83%,-1%,–,–
"O=C(NCCCn1ccnc1)c1ccc2nc(-c3ccccc3)c(-c3ccsc3)nc2c1 [Compound I-174, N-[3-(1H-imidazol-1-yl)propyl]-2-phenyl-3-(3-thienyl)quinoxaline-6-carboxamide]",100 to 500 nM,89%,1%,–,–
"O=C(NCCCn1ccnc1)c1ccc2nc(-c3ccccc3)c(N3CCC3)nc2c1 [Compound I-175, 3-(azetidin-1-yl)-N-[3-(1H-imidazol-1-yl)propyl]-2-phenylquinoxaline-6-carboxamide]",2000 to 10000 nM,20%,95%,–,–
"O=C(NCCCn1ccnc1)c1ccc2nc(-c3ccccc3)c(-c3cccnc3)nc2c1 [Compound I-176, N-[3-(1H-imidazol-1-yl)propyl]-2-phenyl-3-(pyridin-3-yl)quinoxaline-6-carboxamide]",1000 to 2000 nM,46%,1%,–,–
"Cn1cncc1CCNC(=O)c1ccc2nc(N3CCOCC3)c(-c3ccc(F)cc3)nc2c1 [Compound I-177, 3-(4-fluorophenyl)-N-[2-(1-methyl-1H-imidazol-5-yl)ethyl]-2-(morpholin-4-yl)quinoxaline-6-carboxamide]",100 to 500 nM,77%,–,2%,–
"O=C(NCCCc1ncc[nH]1)c1ccc2nc(-c3ccc(F)cc3)c(-c3ccc(F)cc3)nc2c1 [Compound I-178, 2,3-bis(4-fluorophenyl)-N-[3-(1H-imidazol-2-yl)propyl]quinoxaline-6-carboxamide]",< 100 nM,97%,–,2%,–
"Cn1cccc1-c1nc2ccc(C(=O)NCCCn3ccnc3)cc2nc1-c1ccccc1 [Compound I-179, N-[3-(1H-imidazol-1-yl)propyl]-2-(1-methyl-1H-pyrrol-2-yl)-3-phenylquinoxaline-6-carboxamide]",500 to 1000 nM,57%,-7%,–,–
